Laboratory results taken from PubChem BioAssay AID2060349 (Molecular Pharmacology Branch, DTP, NCI, 2025).

System: 762968-020-R-J2-PDC spheroids viability
Test: Anticancer human tumor 762968-020-R-J2-PDC patient-derived colon carcinoma cell line growth inhibition [TAK]
Conditions: spheroids with HUVEC and MSC; for IC50: curve of first compound; for viability, T/C: stronger effect = lower value
In short: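 Spheroids of 60% malignant cells, 25% HUVEC and 15% hMSC were exposed to targeted agents combined with TAK-243 or ipatasertib. Concentrations started at or near clinical Cmax (10 microM if unknown) and descended in half-log steps.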
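Further: spheroids exposed to drug for 7 days before readout.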
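Wherever viability, T/C is given: 100% = DMSO vehicle control wells.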

CC(=O)Nc1cccc(-n2c(=O)n(C3CC3)c(=O)c3c(Nc4ccc(I)cc4F)n(C)c(=O)c(C)c32)c1 + CC(C)NCC(C(=O)N1CCN(c2ncnc3c2C(C)CC3O)CC1)c1ccc(Cl)cc1
IC50 (second compound 0.3 µM): 20.2 nM | IC50 (second compound 0.949 µM): 20.8 nM | IC50 (second compound 3 µM): 23.1 nM | IC50 (second compound 9.49 µM): 17.7 nM | IC50 (second compound 30 µM): 16.2 nM | viability, T/C (second compound 0.3 µM, first compound 94.9 pM): 98.7% | viability, T/C (second compound 0.3 µM, first compound 0.0003 µM): 104% | viability, T/C (second compound 0.3 µM, first compound 0.000949 µM): 91.6% | viability, T/C (second compound 0.3 µM, first compound 0.003 µM): 82.2% | viability, T/C (second compound 0.3 µM, first compound 0.00949 µM): 70.1% | viability, T/C (second compound 0.3 µM, first compound 0.03 µM): 39.7% | viability, T/C (second compound 0.949 µM, first compound 94.9 pM): 92.9% | viability, T/C (second compound 0.949 µM, first compound 0.0003 µM): 98.1% | viability, T/C (second compound 0.949 µM, first compound 0.000949 µM): 91.8% | viability, T/C (second compound 0.949 µM, first compound 0.003 µM): 96% | viability, T/C (second compound 0.949 µM, first compound 0.00949 µM): 74.5% | viability, T/C (second compound 0.949 µM, first compound 0.03 µM): 38.5% | viability, T/C (second compound 3 µM, first compound 94.9 pM): 101% | viability, T/C (second compound 3 µM, first compound 0.0003 µM): 103% | viability, T/C (second compound 3 µM, first compound 0.000949 µM): 97.4% | viability, T/C (second compound 3 µM, first compound 0.003 µM): 90.2% | viability, T/C (second compound 3 µM, first compound 0.00949 µM): 80.2% | viability, T/C (second compound 3 µM, first compound 0.03 µM): 41.1% | viability, T/C (second compound 9.49 µM, first compound 94.9 pM): 96.1% | viability, T/C (second compound 9.49 µM, first compound 0.0003 µM): 99.1% | viability, T/C (second compound 9.49 µM, first compound 0.000949 µM): 95.6% | viability, T/C (second compound 9.49 µM, first compound 0.003 µM): 80.6% | viability, T/C (second compound 9.49 µM, first compound 0.00949 µM): 67.3% | viability, T/C (second compound 9.49 µM, first compound 0.03 µM): 36.3% | viability, T/C (second compound 30 µM, first compound 94.9 pM): 90.3% | viability, T/C (second compound 30 µM, first compound 0.0003 µM): 87.7% | viability, T/C (second compound 30 µM, first compound 0.000949 µM): 80.3% | viability, T/C (second compound 30 µM, first compound 0.003 µM): 71.4% | viability, T/C (second compound 30 µM, first compound 0.00949 µM): 60.9% | viability, T/C (second compound 30 µM, first compound 0.03 µM): 38.8%

CC(C)CC(NC(=O)CNC(=O)c1cc(Cl)ccc1Cl)B1OC(=O)CC(CC(=O)O)(C(=O)O)O1 (stereo not given) + CC(C)NCC(C(=O)N1CCN(c2ncnc3c2C(C)CC3O)CC1)c1ccc(Cl)cc1
IC50 (second compound 0.3 µM): > 100 nM | IC50 (second compound 0.949 µM): > 100 nM | IC50 (second compound 3 µM): > 100 nM | IC50 (second compound 9.49 µM): > 100 nM | IC50 (second compound 30 µM): > 100 nM | viability, T/C (second compound 0.3 µM, first compound 0.000316 µM): 100% | viability, T/C (second compound 0.3 µM, first compound 0.001 µM): 105% | viability, T/C (second compound 0.3 µM, first compound 0.00316 µM): 93.4% | viability, T/C (second compound 0.3 µM, first compound 0.01 µM): 108% | viability, T/C (second compound 0.3 µM, first compound 0.0316 µM): 99.4% | viability, T/C (second compound 0.3 µM, first compound 0.1 µM): 79.5% | viability, T/C (second compound 0.949 µM, first compound 0.000316 µM): 94% | viability, T/C (second compound 0.949 µM, first compound 0.001 µM): 93.8% | viability, T/C (second compound 0.949 µM, first compound 0.00316 µM): 97.1% | viability, T/C (second compound 0.949 µM, first compound 0.01 µM): 103% | viability, T/C (second compound 0.949 µM, first compound 0.0316 µM): 103% | viability, T/C (second compound 0.949 µM, first compound 0.1 µM): 70.6% | viability, T/C (second compound 3 µM, first compound 0.000316 µM): 104% | viability, T/C (second compound 3 µM, first compound 0.001 µM): 102% | viability, T/C (second compound 3 µM, first compound 0.00316 µM): 98.2% | viability, T/C (second compound 3 µM, first compound 0.01 µM): 105% | viability, T/C (second compound 3 µM, first compound 0.0316 µM): 95.2% | viability, T/C (second compound 3 µM, first compound 0.1 µM): 73.4% | viability, T/C (second compound 9.49 µM, first compound 0.000316 µM): 94% | viability, T/C (second compound 9.49 µM, first compound 0.001 µM): 94.8% | viability, T/C (second compound 9.49 µM, first compound 0.00316 µM): 102% | viability, T/C (second compound 9.49 µM, first compound 0.01 µM): 101% | viability, T/C (second compound 9.49 µM, first compound 0.0316 µM): 95.5% | viability, T/C (second compound 9.49 µM, first compound 0.1 µM): 79.9% | viability, T/C (second compound 30 µM, first compound 0.000316 µM): 79% | viability, T/C (second compound 30 µM, first compound 0.001 µM): 89.4% | viability, T/C (second compound 30 µM, first compound 0.00316 µM): 89.4% | viability, T/C (second compound 30 µM, first compound 0.01 µM): 88% | viability, T/C (second compound 30 µM, first compound 0.0316 µM): 84.5% | viability, T/C (second compound 30 µM, first compound 0.1 µM): 72.7%
